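Where inhibition never reached the appropriate level, the endpoint shown equals the highest concentration tested. Otherwise, values were interpolated linearly from a five-concentration, 48-hour dose response in 96-well plates. GI50: concentration for 50% inhibition of growth.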 The source made the active and inactive calls. Rule as the data show it: active = GI50 up to about 1.1 µM and inactive = higher.
Key:
Assay in all cases: inhibition of tumour cell growth, NCI panel, 48 h
NCI-H522 = tested on: NCI-H522
HCT-15 = tested on: HCT-15
TK-10 = tested on: TK-10
SK-MEL-5 = tested on: SK-MEL-5
IGROV-1 = tested on: IGROV-1
MDA-MB-231 = tested on: MDA-MB-231
T47D = tested on: T47D
SF-539 = tested on: SF-539
SR = tested on: SR
SK-MEL-2 = tested on: SK-MEL-2
NCI-H226 = tested on: NCI-H226
NCI/ADR-RES = tested on: NCI/ADR-RES
SW-620 = tested on: SW-620
PC-3 = tested on: PC-3
UO-31 = tested on: UO-31
COLO 205 = tested on: COLO 205
SF-268 = tested on: SF-268
ACHN = tested on: ACHN
HT-29 = tested on: HT-29
SF-295 = tested on: SF-295
OVCAR-3 = tested on: OVCAR-3
CAKI-1 = tested on: CAKI-1
MDA-MB-435 = tested on: MDA-MB-435
HCC 2998 = tested on: HCC 2998
LOX IMVI = tested on: LOX IMVI
RPMI-8226 = tested on: RPMI-8226
NCI-H23 = tested on: NCI-H23
M14 = tested on: M14
Malme-3M = tested on: Malme-3M
Hs-578T = tested on: Hs-578T
SNB-19 = tested on: SNB-19
BT-549 = tested on: BT-549
OVCAR-8 = tested on: OVCAR-8
RXF 393 = tested on: RXF 393
CCRF-CEM = tested on: CCRF-CEM
A549 = tested on: A549
MCF7 = tested on: MCF7
UACC-257 = tested on: UACC-257
OVCAR-5 = tested on: OVCAR-5
KM12 = tested on: KM12
NCI-H460 = tested on: NCI-H460
SK-MEL-28 = tested on: SK-MEL-28
DU-145 = tested on: DU-145
A498 = tested on: A498
U-251 = tested on: U-251
UACC-62 = tested on: UACC-62
786-0 = tested on: 786-0
K562 = tested on: K562
EKVX = tested on: EKVX
HCT-116 = tested on: HCT-116
SN12C = tested on: SN12C
HL-60 = tested on: HL-60
HOP-62 = tested on: HOP-62

COc1ccc(C(=O)Nc2ccc(O)c(=O)cc2)cc1
GI50 (NCI-H522): 25.8 µM (inactive)
GI50 (HCT-15): 26.9 µM
GI50 (TK-10): 53 µM (inactive)
GI50 (SK-MEL-5): 41.6 µM (inactive)
GI50 (IGROV-1): 37.9 µM (inactive)
GI50 (MDA-MB-231): 42.3 µM (inactive)
GI50 (T47D): < 0.01 µM (active)
GI50 (SF-539): 33.2 µM (inactive)
GI50 (SR): 17.5 µM (inactive)
GI50 (SK-MEL-2): 50.1 µM (inactive)
GI50 (NCI-H226): > 100 µM (inactive)
GI50 (NCI/ADR-RES): 42.3 µM (inactive)
GI50 (SW-620): 30.7 µM (inactive)
GI50 (PC-3): 40 µM (inactive)
GI50 (UO-31): 20.9 µM (inactive)
GI50 (COLO 205): 24.2 µM (inactive)
GI50 (SF-268): 21 µM (inactive)
GI50 (ACHN): 23.7 µM (inactive)
GI50 (HT-29): 20.8 µM (inactive)
GI50 (SF-295): 37.8 µM (inactive)
GI50 (OVCAR-3): 27.6 µM (inactive)
GI50 (CAKI-1): 36.9 µM (inactive)
GI50 (MDA-MB-435): 43.4 µM (inactive)
GI50 (HCC 2998): 39.9 µM (inactive)
GI50 (LOX IMVI): 38.7 µM (inactive)
GI50 (RPMI-8226): 26.9 µM (inactive)
GI50 (NCI-H23): 89.7 µM (inactive)
GI50 (M14): 78 µM (inactive)
GI50 (Malme-3M): 43.9 µM (inactive)
GI50 (Hs-578T): 29.2 µM (inactive)
GI50 (SNB-19): 36.1 µM (inactive)
GI50 (BT-549): 38.5 µM (inactive)
GI50 (OVCAR-8): 30.6 µM (inactive)
GI50 (RXF 393): 13.6 µM (inactive)
GI50 (CCRF-CEM): 24 µM (inactive)
GI50 (A549): 43.9 µM (inactive)
GI50 (MCF7): 21.5 µM (inactive)
GI50 (UACC-257): 40.6 µM (inactive)
GI50 (OVCAR-5): > 100 µM (inactive)
GI50 (KM12): 39.4 µM (inactive)
GI50 (NCI-H460): 15.3 µM (inactive)
GI50 (SK-MEL-28): 22.5 µM (inactive)
GI50 (DU-145): 25.6 µM (inactive)
GI50 (A498): < 0.01 µM (active)
GI50 (U-251): 38.7 µM (inactive)
GI50 (UACC-62): 32.5 µM (inactive)
GI50 (786-0): 51.1 µM (inactive)
GI50 (K562): 32.4 µM (inactive)
GI50 (EKVX): 21.4 µM (inactive)
GI50 (HCT-116): 33.1 µM (inactive)
GI50 (SN12C): 36.5 µM (inactive)
GI50 (HL-60): 21.3 µM (inactive)
GI50 (HOP-62): 80.9 µM (inactive)
